Experiment [1] can be described thus: NIH3T3 cell viability loss – ATP luminescence, mouse fibroblasts, counter-screen, dose response (AID 2010).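 Further: cells exposed to compound for about 90 hours before reading.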 The class given is functional, cell-based.
Experiment [2] can be described thus: Trypanosoma cruzi growth suppression in host cells – NIH3T3 host cells, beta-gal luminescence, confirmation (AID 2044).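 Further: intracellular parasites grown in NIH/3T3 mouse fibroblasts as host cells; luminescent beta-galactosidase reporter signal from transgenic T. cruzi replicating inside host cells; inhibitors lower the luminescence signal.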 It counts as functional, cell-based.
The target in the next experiment is Prothrombin (Homo sapiens, UniProt P00734). In words: Thrombin 1536 HTS Dose Response Confirmation. [Related pubchem assays: 1046 (Thrombin 1536 HTS; hits were confirmed in this assay)]. It counts as functional.
The target of experiment [3] is T1, Short transient receptor potential channel 4 (Mus musculus, UniProt Q9QUQ5).
T1 sequence (Q9QUQ5 whole entry): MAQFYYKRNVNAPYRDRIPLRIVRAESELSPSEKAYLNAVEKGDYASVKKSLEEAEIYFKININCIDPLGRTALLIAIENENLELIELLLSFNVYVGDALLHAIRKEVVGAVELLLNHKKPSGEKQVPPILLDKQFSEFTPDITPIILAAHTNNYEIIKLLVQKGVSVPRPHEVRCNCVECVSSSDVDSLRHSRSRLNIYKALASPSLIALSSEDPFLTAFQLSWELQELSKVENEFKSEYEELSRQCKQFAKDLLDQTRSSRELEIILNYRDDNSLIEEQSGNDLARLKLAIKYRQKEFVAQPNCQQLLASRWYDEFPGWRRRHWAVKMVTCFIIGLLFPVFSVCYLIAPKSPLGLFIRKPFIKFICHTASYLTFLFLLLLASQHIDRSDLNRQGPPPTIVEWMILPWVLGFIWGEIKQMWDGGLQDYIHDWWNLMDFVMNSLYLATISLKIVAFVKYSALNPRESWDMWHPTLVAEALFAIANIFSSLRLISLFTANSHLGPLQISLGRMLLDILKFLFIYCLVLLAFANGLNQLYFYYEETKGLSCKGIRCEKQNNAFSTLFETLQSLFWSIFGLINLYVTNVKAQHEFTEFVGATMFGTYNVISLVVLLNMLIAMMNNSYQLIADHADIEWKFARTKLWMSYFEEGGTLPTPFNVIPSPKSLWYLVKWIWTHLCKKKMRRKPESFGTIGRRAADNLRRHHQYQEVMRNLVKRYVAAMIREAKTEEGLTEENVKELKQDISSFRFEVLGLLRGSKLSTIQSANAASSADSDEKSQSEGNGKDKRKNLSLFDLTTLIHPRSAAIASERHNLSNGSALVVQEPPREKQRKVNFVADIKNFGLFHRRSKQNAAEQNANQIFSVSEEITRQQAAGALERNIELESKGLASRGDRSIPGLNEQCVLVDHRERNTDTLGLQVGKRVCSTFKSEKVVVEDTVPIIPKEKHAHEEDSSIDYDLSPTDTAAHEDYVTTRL
The experiment in a line: block of DAMGO-driven TRPC4 calcium entry – cell-based, HEK293 TRPC4/mu-opioid, Fluo-4 calcium, dose response (AID 434942).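 Further: potency of inhibitors blocking the TRPC4 calcium response.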 It counts as functional.

The target in experiment [4] is T1, Short transient receptor potential channel 4. In words: calcium entry via TRPC4 opening agents – cell-based, HEK293 TRPC4/mu-opioid, Fluo-4 calcium, dose response (AID 434937). It counts as functional.
For the next experiment, the target named is T2, Coagulation factor XII (Homo sapiens, UniProt P00748).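 Further: activated factor XIIa alpha cleaving a fluorogenic AMC peptide substrate; inhibitor potency from loss of enzyme activity.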
T2 sequence (P00748 whole entry): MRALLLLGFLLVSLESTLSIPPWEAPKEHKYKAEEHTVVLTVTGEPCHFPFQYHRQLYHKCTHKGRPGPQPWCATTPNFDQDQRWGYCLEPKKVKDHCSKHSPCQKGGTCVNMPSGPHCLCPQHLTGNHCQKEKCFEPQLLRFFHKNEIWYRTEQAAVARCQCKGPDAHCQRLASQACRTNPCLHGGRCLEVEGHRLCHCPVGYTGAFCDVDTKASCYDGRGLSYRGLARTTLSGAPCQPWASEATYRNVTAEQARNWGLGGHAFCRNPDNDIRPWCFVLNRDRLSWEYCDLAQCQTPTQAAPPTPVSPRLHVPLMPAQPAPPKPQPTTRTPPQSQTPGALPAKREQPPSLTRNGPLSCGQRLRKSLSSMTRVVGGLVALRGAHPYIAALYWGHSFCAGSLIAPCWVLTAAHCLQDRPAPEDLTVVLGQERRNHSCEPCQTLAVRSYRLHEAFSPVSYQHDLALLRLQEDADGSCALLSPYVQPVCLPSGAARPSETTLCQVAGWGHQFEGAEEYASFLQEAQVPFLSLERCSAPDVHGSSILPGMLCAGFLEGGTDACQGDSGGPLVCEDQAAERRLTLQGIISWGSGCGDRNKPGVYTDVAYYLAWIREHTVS
The class given is functional.

The target of the next experiment is Cytochrome P450 2C9 (Homo sapiens, UniProt P11712).
The target in another experiment is Cytochrome P450 2C19 (Homo sapiens, UniProt P33261). The experiment in a line: Cytochrome panel assay with activity outcomes. Panel member name: p450-cyp2c19 Compounds with AC50 equal or less than 10 uM are considered active. The class given is functional. The settings on record: read-out: AC50.
Experiment [5] concerns the target Luciferin 4-monooxygenase (Photinus pyralis, UniProt P08659). In words: Counter Screen for Luciferase-based Assay Positives. [Related pubchem assays: 620, 618, 411 ].
Another experiment deals with HT-1080. The experiment in a line: HT1080 cell viability loss – fluorescence readout (AID 620). The settings on record: Homo sapiens. It counts as functional, cell-based.
In experiment [6] the target is Glyceraldehyde-3-phosphate dehydrogenase (Homo sapiens, UniProt P04406).
Experiment [7] has as its target T3, Histone-lysine N-methyltransferase NSD2 (Homo sapiens, UniProt O96028).
T3 sequence (O96028 whole entry): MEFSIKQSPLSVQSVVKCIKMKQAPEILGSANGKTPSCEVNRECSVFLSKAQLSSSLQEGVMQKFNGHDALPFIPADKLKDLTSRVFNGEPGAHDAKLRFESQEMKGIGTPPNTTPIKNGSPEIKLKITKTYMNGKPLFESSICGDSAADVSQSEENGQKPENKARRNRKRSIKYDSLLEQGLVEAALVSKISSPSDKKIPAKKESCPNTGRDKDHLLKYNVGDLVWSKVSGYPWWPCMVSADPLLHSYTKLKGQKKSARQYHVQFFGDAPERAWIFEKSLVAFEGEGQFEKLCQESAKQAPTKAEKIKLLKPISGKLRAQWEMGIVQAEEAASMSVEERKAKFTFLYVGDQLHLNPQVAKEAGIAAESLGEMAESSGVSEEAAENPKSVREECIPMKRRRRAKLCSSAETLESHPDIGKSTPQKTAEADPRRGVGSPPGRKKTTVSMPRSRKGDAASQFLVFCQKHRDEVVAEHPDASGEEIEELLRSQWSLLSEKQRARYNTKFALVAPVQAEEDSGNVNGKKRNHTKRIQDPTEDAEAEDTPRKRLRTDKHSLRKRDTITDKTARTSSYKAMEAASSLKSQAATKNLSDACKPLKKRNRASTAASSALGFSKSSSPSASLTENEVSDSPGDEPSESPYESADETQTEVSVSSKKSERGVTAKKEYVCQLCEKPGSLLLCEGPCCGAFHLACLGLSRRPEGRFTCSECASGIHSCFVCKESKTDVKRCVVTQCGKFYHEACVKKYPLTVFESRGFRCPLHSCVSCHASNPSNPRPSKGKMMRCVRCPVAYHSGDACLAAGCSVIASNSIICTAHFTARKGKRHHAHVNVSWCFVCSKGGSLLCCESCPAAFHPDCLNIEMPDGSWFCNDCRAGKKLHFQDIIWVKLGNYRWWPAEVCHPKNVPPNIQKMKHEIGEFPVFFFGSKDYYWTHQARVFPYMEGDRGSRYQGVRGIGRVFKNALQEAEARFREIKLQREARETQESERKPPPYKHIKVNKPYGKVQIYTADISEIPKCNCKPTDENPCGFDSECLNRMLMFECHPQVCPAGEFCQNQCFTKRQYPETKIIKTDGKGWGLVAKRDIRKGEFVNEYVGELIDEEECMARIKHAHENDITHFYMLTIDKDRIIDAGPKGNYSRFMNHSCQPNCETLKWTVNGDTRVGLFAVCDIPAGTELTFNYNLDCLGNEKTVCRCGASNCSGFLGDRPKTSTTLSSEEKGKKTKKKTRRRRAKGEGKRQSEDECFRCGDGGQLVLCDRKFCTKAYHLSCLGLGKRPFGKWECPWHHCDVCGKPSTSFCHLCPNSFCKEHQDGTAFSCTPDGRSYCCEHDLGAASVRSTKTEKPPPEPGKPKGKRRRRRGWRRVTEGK
The class given is biochemical.

For experiment [8], the target named is T4, Mannose-6-phosphate isomerase (Homo sapiens, UniProt P34949).
T4 sequence (P34949 whole entry): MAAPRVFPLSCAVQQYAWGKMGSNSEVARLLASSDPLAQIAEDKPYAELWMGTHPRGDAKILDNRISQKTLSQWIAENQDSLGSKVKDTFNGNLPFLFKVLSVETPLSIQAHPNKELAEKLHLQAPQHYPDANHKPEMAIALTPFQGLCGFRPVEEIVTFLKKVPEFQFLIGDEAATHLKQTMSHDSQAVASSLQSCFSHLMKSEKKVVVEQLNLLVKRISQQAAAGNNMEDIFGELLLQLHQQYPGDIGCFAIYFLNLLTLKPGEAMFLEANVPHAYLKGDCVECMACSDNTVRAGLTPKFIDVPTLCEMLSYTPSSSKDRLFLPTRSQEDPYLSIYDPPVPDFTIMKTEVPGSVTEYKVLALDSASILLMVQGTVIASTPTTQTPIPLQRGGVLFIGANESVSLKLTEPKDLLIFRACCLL
In words: MPI inhibition at elevated mannose 6-phosphate – biochemical, fluorescence intensity, high mannose 6-phosphate, primary screen (AID 1220).

Experiment [9] deals with T5, Calpain-2 catalytic subunit (Sus scrofa, UniProt P43367).
T5 sequence (P43367 whole entry): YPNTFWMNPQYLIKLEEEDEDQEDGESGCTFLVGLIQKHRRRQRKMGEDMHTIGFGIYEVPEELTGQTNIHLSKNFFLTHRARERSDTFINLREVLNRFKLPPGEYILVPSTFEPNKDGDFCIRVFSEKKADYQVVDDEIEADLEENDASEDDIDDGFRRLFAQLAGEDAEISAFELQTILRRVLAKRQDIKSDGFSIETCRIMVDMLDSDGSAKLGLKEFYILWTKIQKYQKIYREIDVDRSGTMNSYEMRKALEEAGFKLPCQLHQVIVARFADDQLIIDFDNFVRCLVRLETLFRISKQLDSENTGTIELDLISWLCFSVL
The experiment in a line: m-calpain protease blockers, concentration series – biochemical, fluorogenic peptide substrate, dose response (AID 1420). It counts as functional.

The source made the active and inactive calls.

We go through 19 molecules from ChEMBL document CHEMBL1201862, “PubChem BioAssay data set” (2004).

Chain of Luciferin 4-monooxygenase (P08659 whole entry): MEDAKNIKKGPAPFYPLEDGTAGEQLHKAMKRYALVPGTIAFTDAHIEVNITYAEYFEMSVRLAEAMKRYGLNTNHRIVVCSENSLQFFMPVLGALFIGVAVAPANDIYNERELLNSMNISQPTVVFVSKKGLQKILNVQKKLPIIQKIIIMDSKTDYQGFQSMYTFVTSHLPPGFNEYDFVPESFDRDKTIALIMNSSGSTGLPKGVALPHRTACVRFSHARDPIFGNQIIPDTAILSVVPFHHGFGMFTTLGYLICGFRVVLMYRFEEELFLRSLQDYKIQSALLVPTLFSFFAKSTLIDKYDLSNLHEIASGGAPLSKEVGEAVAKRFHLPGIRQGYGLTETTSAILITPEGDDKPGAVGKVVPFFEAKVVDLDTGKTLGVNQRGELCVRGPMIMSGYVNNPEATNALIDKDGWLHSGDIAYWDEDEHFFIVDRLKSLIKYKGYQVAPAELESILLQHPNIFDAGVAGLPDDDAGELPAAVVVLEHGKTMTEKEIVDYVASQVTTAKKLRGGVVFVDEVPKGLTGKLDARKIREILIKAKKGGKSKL
Chain of Glyceraldehyde-3-phosphate dehydrogenase (P04406 whole entry): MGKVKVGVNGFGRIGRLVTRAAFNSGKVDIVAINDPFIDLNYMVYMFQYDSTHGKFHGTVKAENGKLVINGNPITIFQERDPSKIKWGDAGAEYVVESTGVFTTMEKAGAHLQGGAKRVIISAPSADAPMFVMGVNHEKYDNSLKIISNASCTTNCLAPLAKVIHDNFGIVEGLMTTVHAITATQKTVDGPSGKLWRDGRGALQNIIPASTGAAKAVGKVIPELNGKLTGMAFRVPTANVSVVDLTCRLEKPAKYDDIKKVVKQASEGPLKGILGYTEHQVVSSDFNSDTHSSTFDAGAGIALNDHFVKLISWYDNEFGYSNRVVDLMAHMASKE
Chain of Cytochrome P450 2C9 (P11712 whole entry): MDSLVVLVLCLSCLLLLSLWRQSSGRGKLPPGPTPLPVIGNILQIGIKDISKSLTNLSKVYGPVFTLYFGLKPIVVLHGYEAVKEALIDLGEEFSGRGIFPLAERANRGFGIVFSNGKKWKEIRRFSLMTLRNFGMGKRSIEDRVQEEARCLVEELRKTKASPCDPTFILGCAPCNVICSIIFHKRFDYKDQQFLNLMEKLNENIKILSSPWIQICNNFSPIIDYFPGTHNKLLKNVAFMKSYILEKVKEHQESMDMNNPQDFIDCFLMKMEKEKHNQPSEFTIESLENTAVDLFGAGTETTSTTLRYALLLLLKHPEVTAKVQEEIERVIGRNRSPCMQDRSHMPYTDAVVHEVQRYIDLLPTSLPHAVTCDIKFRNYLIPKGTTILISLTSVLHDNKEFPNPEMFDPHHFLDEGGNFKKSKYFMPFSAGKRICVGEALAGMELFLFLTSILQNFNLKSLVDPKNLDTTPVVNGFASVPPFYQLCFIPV
Chain of Cytochrome P450 2C19 (P33261 whole entry): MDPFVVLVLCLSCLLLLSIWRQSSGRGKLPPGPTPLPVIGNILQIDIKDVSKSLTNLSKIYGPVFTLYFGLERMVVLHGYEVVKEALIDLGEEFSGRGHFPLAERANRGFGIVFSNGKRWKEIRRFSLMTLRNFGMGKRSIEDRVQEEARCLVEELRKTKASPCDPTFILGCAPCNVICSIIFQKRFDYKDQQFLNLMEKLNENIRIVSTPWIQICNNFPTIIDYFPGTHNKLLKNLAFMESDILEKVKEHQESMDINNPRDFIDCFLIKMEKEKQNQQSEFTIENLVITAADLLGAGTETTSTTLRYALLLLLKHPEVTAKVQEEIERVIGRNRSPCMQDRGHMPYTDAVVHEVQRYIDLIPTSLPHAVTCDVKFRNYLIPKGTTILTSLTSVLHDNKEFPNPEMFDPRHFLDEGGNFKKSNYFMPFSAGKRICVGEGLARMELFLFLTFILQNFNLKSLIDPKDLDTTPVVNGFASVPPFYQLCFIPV

Consider `O=C(NCC(c1cccnc1)N1CCN(c2ccc(F)cc2)CC1)OCc1ccccc1` (stereo unspecified), for which the EC50 (in general, the concentration needed to bring the measured effect to its halfway point) is > 60 µM (not active) in [1], 89 nM (active) in “cells” and < 100 nM (active) in experiment [2].

Take `Cc1ccc2c(c1)C1CN(C)CCC1N2C(=O)c1ccc(Cl)c(S(=O)(=O)N2CCOCC2)c1` (stereo unspecified): the EC50 was > 60 µM (not active) in experiment [1], 199 nM (active) in “cells” and < 100 nM (active) in experiment [2].

Take `CC(=O)n1nc(-c2ccccc2)nc1NCc1ccc(N(C)C)cc1`: the IC50 – broadly, the concentration that inhibits the measured activity by half – on Prothrombin was 3.39 µM (active).

`CN(C)CCCN(C(=O)c1ccc(S(=O)(=O)N(C)C)cc1)c1nc2ccc(F)cc2s1`: the EC50 in [3] is 5.96 µM (active); in experiment [1], > 60 µM (not active); in the experiment “cells” it was 12 nM (active); in experiment [2], < 100 nM (active); in experiment [4] it was 9.44 µM (active).

Regarding `NS(=O)(=O)c1ccc(CCNC(=O)Cc2ccccc2[N+](=O)[O-])cc1`, the IC50 was > 50 µM (inactive) at Coagulation factor XII and > 50 µM (not active) against Prothrombin.

For the molecule `O=C(c1ccc([N+](=O)[O-])cc1)n1nc(-c2ccccc2)nc1NCc1ccccc1`, the AC50 (as a rule, the concentration at which the activity in the assay is half-maximal) on Cytochrome P450 2C9 is 631 nM (inconclusive); at Cytochrome P450 2C19 it was 1.58 µM (inconclusive). For the same molecule, at Prothrombin, the 50% inhibitory concentration (IC50) was 0.0293 µM (active).

As to `CCOc1ccc(OCc2ccc(C(=O)O)o2)cc1`, the results for the EC50 (in experiment [5]; with HT-1080) were 0.36 µM (active) and > 50 µM (not active), respectively.

For `CC(=O)n1nc(-c2ccccc2)nc1NCc1cccs1`, at Prothrombin, the IC50 was 0.0965 µM (active).

Turning to `O=C(Nc1ccccc1)C12CC3CC(C1)CC(n1cnc([N+](=O)[O-])n1)(C3)C2`, the EC50 in experiment [1] is > 60 µM (not active); in “cells”, 60 nM (active); in experiment [2], < 100 nM (active).

Consider `O=C(O)c1cccc(C(=O)Nc2cccc(NC(=O)C3CCCO3)c2)c1` (stereo unspecified), for which the IC50 in experiment [6] is > 100 µM (not active). Moreover, the EC50 was 56.3 µM (active) in experiment [5] and > 50 µM (not active) with HT-1080.

Regarding `OC1CCN(Cc2ccc(OCc3ccccc3)cc2)CC1`, the 50% effective concentration (EC50) is > 60 µM (not active) in experiment [1], 207 nM (active) in “cells” and < 100 nM (active) in [2].

For `Cn1cc2ccc(N)cc2n1`, the AC50 in experiment [7] is 3.81 µM (active). Further, the IC50 in [8] is reported as > 50 µM (not active).

As for `O=C(CN1C(=O)CSc2ccccc21)N1CCc2ccccc21`, at Prothrombin, the half-maximal inhibitory concentration (IC50) is recorded as > 50 µM (not active).

On to `CC(C)c1ccc(-c2noc(C3CCCN(C(=O)c4ccc(F)cc4F)C3)n2)cc1` (stereo unspecified), for which the figures for the IC50 (on Prothrombin; in [9]) were > 50 µM (not active) and 9.51 µM (not active), respectively.

For `CSc1nc(-c2ccco2)nn1C(=O)CCc1ccccc1`, at Prothrombin, the IC50 is 0.00551 µM (active).

As for `CC(C)c1ccc2oc(-c3ccc(N)cc3)nc2c1`, the values for the EC50 (in [5]; in the experiment with HT-1080) were 12.3 µM (active) and > 50 µM (not active), respectively.

Take `Cc1ccc(NC(=O)CN(C)C(=O)CCC(=O)c2cccs2)cc1`: the half-maximal inhibitory concentration (IC50) at Prothrombin was > 50 µM (not active).

Take `Cc1ccc(CNc2nc3ccccc3s2)s1`: the EC50 was 14.4 µM (active) in experiment [5] and > 50 µM (not active) in the experiment with HT-1080.

Regarding `COc1cccc(C(=O)NNC(=O)Cc2ccc([N+](=O)[O-])cc2)c1`, at Prothrombin, the IC50 is listed as > 50 µM (not active).
